Data taken from publication PMC7053711, “A G protein–coupled receptor mediates neuropeptide-induced oocyte maturation in the jellyfish Clytia” (PLoS Biology, 2020).
“Also recorded” adds a separate entry of the source. Peptide text beside a SMILES is read from it.

Experiments:
[1] = system: fully grown oocytes isolated from WT gonads; test: Oocyte maturation assay, wild-type isolated oocytes (GVBD); format: cell-based, Clytia hemisphaerica; details: for Oocyte maturation (number) / Percentage of Oocytes maturing: 0,1uM WPRPa, wild type
Text: Fig 4 Oocyte maturation failure in MIHR mutant medusae. Oocyte maturation assays performed using isolated gonads (A, B) or isolated oocytes (C) from MIHR mutant jellyfish compared to WT. In A and C, bar heights represent mean percentages of 3 independent experiments and error bars show standard deviations. Total gonad or oocyte numbers for each treatment are indicated in gray. (A) Spawning response of isolated gonads from WT and n5-23 female medusae. Three treatments were compared as indicated above each panel: Light: light stimulation after incubation in the dark; MIH: treatment of light-maintained gonads with 100 nM WPRPamide; cAMP: treatment of light-maintained gonads with 4 mM Br-cAMP. […] Full datasets from three independent experiments are available in S3 Data. (B) Light microscope images illustrating gonads from an equivalent experiment performed with n5-13 female MIHR mutant medusae 120 minutes after the indicated treatments. Scale bar: 500 μm. […] Full datasets from 3 independent experiments are available in S3 Data. Br-cAMP, bromoadenosine 3′,5′-cyclic monophosphate; cAMP, cyclic adenosine monophosphate; KO, knockout; MIH, maturation-inducing hormone; MIHR, MIH receptor; WT, wild-type.
Fully grown oocytes were isolated manually from dissected gonads of wild-type and MIHR KO mutant jellyfish prepared as above. Maturation assays were performed in wells of 96-well plates or small plastic petri dishes lined with 2% agarose in MFSW. Spontaneous maturation occurs at a low frequency in control oocytes. To test MIH-induced maturation, 10 μL WPRPamide from 1 μM solution in MFSW was added to a final concentration of 100 nM. In some experiments, Br-cAMP from a 20 mM stock in H2O was used at a final concentration of 4 mM. GVBD was scored at 30 minutes, every 5 minutes, depending on experiments.
(§1) Supplementary file pbio.3000614.s013.xlsx: S3 Data Numerical data corresponding to Fig 4A and 4C. The first tab collects all the raw data from 3 independent gonad spawning assays. Information corresponding to the Fisher exact tests is also shown. […] The means and standard deviations were used to prepare the graph in Fig 4C. Information corresponding to the Fisher exact tests is also shown. (XLSX) Click here for additional data file.

[2] = system: MIHR mutant (n5-23, n5-13) isolated female gonads; test: Gonad spawning assay, MIHR mutant isolated gonads; design: species or system Clytia hemisphaerica; details: for Gonads spawning (number) / Percentage of spawning gonads: 0,1uM WPRPa, MIH R K.O.
Experimental: We performed a series of oocyte maturation and spawning assays, comparing the responses of wild-type and MIHR mutant isolated gonads and oocytes to different stimuli (Fig 4).
Sexually mature MIHR mutant medusae from colonies n5-13 and n5-23 and wild-type medusae were cultured on the same day–night cycle. Individual gonads were dissected in the evening after afternoon spawning. To test the light response, one group of each was transferred to 100 μL MFSW in wells of 96-well plastic plates, covered overnight, and re-exposed to white light the following day. To test responses to MIH and cAMP, other groups of dissected gonads were cultured overnight in constant light, then transferred to 96-well plastic plates for two hours. MIH was added to wells as an equal volume of 200 nM WPRPamide (GenScript) stock in MFSW was added to give a final concentration of 100 nM. Alternatively, a stock of 20 mM bromo adenosine 3′,5′cyclic monophosphate (Br-cAMP–Fluka; Sigma Aldrich) in distilled water was added to give a final concentration of 4 mM. Gonads were washed after 5 minutes incubation in Br-cAMP. Oocyte maturation was scored after 30 minutes as germinal vesicle breakdown (GVBD), i.e., visible dissolution of the oocyte nuclear membrane upon entry into M phase, which in all cases was followed by spawning about 1 hour later.
as §1

[3] = 100 nM WPRPamide or 4 mM Br-cAMP
[4] = WPRPa, pooled n=47, Fisher exact test vs MIHR KO significant at p < .01
[5] = WPRPa, pooled n=82, Fisher exact test vs WT significant at p < .01

For `N=C(N)NCCC[C@H](NC(=O)[C@@H]1CCCN1C(=O)[C@@H](N)Cc1c[nH]c2ccccc12)C(=O)N1CCC[C@H]1C(N)=O` [WPRPa] (H-WPRP-NH2; N-terminus assumed), which “Oocyte maturation (number)” value ([1]; replicate 1, total 13) is on record?
Its value is 13.

What about the “Percentage of Oocytes maturing” value ([1]; replicate 1, total 13) of the same compound?
The value was 100.00.

What about the “Oocyte maturation (number)” value ([1]; replicate 2, total 19) of the same compound?
The value was 19.

And the “Percentage of Oocytes maturing” value ([1]; replicate 2, total 19)?
The value was 100.00.

And the “Oocyte maturation (number)” value ([1]; replicate 3, total 15.00)?
Its value is 15.

What about the “Percentage of Oocytes maturing” value ([1]; replicate 3, total 15.00) of the same compound?
Its value is 100.00.

What about the “maturation of isolated WT oocytes” value [1, 3] of the same compound?
Its value is “triggered maturation of WT oocytes”.

What about the “time to visible GVBD, isolated WT oocytes” value [1, 3] of the same compound?
The value was 20 to 30 min.

What about the “Maturing oocytes, WT YES” value [1, 4] of the same compound?
Its value is 47.

What about the “Non-maturing oocytes, WT NO” value [1, 4] of the same compound?
Its value is 0.

And the “Gonads spawning (number)” value ([2]; replicate 1, total 29)?
The value was 0.

What about the “Percentage of spawning gonads” value ([2]; replicate 1, total 29) of the same compound?
The value was 0.

What about the “Gonads spawning (number)” value ([2]; replicate 2, total 29) of the same compound?
Its value is 0.

What about the “Percentage of spawning gonads” value ([2]; replicate 2, total 29) of the same compound?
Its value is 0.

And the “Gonads spawning (number)” value ([2]; replicate 3, total 24)?
Its value is 0.

And the “Percentage of spawning gonads” value ([2]; replicate 3, total 24)?
The value was 0.

What about the “Percentage of spawning gonads (summary)” value ([2]; WPRPa, MIHR K.O., summary of 3 replicates) of the same compound?
The value was 0.

What about the “Non-spawning gonads, MIHR KO NO” value [2, 5] of the same compound?
Its value is 82.

What about the “Spawning gonads, MIHR KO YES” value [2, 5] of the same compound?
The value was 0.

And the “oocyte maturation and spawning of MIHR mutant gonads, MIH treatment” value ([2]; isolated MIHR mutant gonads, 100 nM WPRPamide)?
Its value is “MIHR mutant gonads did not respond; also recorded: No oocyte maturation or spawning was observed”.
